Assay results taken from patent publication US12226386B2, “Compositions and methods for treating biofilms” (The Regents of the University of California, priority 2018, dated 2025).
Like-named read-outs stand apart in the source and are kept apart here.

Experiments:
[1] = test system: bacterial biofilms (MRSA); test: biofilm assays (sustained inhibition and/or disruption), bacterial; format: cell-based, Staphylococcus aureus; conditions: for effect on bacterial biofilm growth / anti-biofilm properties against bacterial biofilms: in at least one of the two biofilm assays; for effect on MRSA biofilms in inhibition and disruption assays: Tables 4 and 5; for anti-biofilm properties against bacterial biofilms: administered individually at about 0.1 to about 5.0% weight to volume
Method: (§1) Other amino acids in the blood of animals could combat bacterial and fungal biofilm and therefore may be useful in treating these bacterial and fungal infections that would lie on the external surfaces of infected animals such as humans and could also be used to combat these pathogens on instruments and surfaces that need to be treated. Two types of biofilm assays were performed: a sustained inhibition assay and a disruption assay. The sustained inhibition assay assessed the compound's ability to prevent biofilm development throughout all stages of biofilm formation, while the disruption assay assessed the compound's ability to break up an existing mature biofilm.
(§2) For fungal biofilm assays, all solutions were prepared in RPMI 1640 medium. All bacterial biofilm solutions were prepared in Tryptic Soy Broth (TSB), supplemented with 1% glucose (henceforth referred to as TSB-G). All subsequent procedures were performed in a manner that maintained sterility. A solution of each amino acid to be tested was prepared in weight to volume concentrations ranging from 0.1-5.0%. Amino acids were also tested in combinations. Compound solutions were homogenized with gentle agitation in the dark (4° C., 24 hours) before use.
(§3) Bacterial strains were streaked on Blood Agar plates (5% sheep blood in Tryptic Soy Agar) and incubated at 37° C. for 24 hours. A single colony from each strain to be tested was inoculated in a TSB broth and grown for 12 hours, at 37° C. shaking at 225 rpm. For the bacterial biofilm inhibition assays, 1 μL of saturated overnight cell culture was added to either 80 μL of TSB-G, or TSB-G supplemented with the amino acid compound solution to be tested, in a 384-well plate. The cells were allowed to adhere to the plate for 60 minutes at 37° C. without shaking. The media was carefully aspirated and 80 μL of TSB-G, or TSB-G supplemented with the amino acid compound solution was added to the plate. The plate was further incubated for 24 hours at 37° C. without shaking. Media was carefully aspirated and the biofilm was measured by optical density at 600 nm. Eight or twelve replicates were performed for each tested condition and the reported values are normalized to the control (TSB-G media only). For the bacterial biofilm disruption assays, 80 μL of TSB-G was added to the plate, along with 1 μL of overnight cell culture. The cells were allowed to adhere to the plate for 60 minutes at 37° C. with no shaking. The media was carefully aspirated and 80 μL of TSB-G was added to the plate. The plate was further incubated for 24 hours at 37° C. with no shaking. Media was carefully aspirated from the mature biofilm and 80 μL of TSB-G, or TSB-G supplemented with the amino acid to be tested, was gently added to the plate. The plate was further incubated for 24 hours at 37° C. without shaking. Media was aspirated and the biofilm was measured by optical density at 600 nm. Twelve replicates were performed for each tested condition and the reported values are normalized to the control (TSB-G media only).

[2] = test system: S. aureus (MRSA) biofilms; test: in vitro sustained inhibition biofilm assay, bacterial; format: cell-based, Staphylococcus aureus; conditions: for activation at 1 %: Staphylococcus aureus, MRSA, 24 h, read-out: Promote B Biofilm
Method: (§4) In vitro biofilm formation was tested using two assays, sustained inhibition and disruption. Both assays assess biofilm formed on polystyrene plates. The first, tests the effects of amino acid solution on a developing biofilm, while the latter tests the effects of the solution on a pre-formed mature biofilm, both compared to media without supplemented amino acids.
as §1, §2, §3
For inhibition assay, 1 μl of overnight cell culture was added to either 80 μl of TSB-G, or TSB-G supplemented with the amino acid to be tested, in a 384-well plate. The cells were allowed to adhere to the plate for 60 minutes at 37° C. with no shaking. The media was carefully aspirated and 80 μl of TSB-G, or TSB-G supplemented with amino acid was added to the plate. The plate was further incubated for 24 hours at 37° C. with no shaking. Media was carefully aspirated and the biofilm was measured by optical density at 600 nm. […]

[3] = test system: S. aureus (MRSA) biofilms; test: in vitro biofilm disruption assay, bacterial; format: cell-based; conditions: Staphylococcus aureus, 24 h
Method: as §4, §1, §2, §3
For disruption assay, 80 μl of TSB-G was added to the plate, along with 1 μl of overnight cell culture. The cells were allowed to adhere to the plate for 60 minutes at 37° C. with no shaking. The media was carefully aspirated and 80 μl of TSB-G was added to the plate. The plate was further incubated for 24 hours at 37° C. with no shaking. Media was carefully aspirated from the mature biofilm and 80 μl of TSB-G, or TSB-G supplemented with the amino acid to be tested, was added drop wise to the plate. The plate was further incubated for 24 hours at 37° C. with no shaking. […]

[4] = test system: fungal biofilms (C. albicans); test: biofilm assays (sustained inhibition and/or disruption), fungal; format: cell-based, Candida albicans
Method: Other amino acids in the blood of animals could combat bacterial and fungal biofilm and therefore may be useful in treating these bacterial and fungal infections that would lie on the external surfaces of infected animals such as humans and could also be used to combat these pathogens on instruments and surfaces that need to be treated. Two types of biofilm assays were performed: a sustained inhibition assay and a disruption assay. The sustained inhibition assay assessed the compound's ability to prevent biofilm development throughout all stages of biofilm formation, while the disruption assay assessed the compound's ability to break up an existing mature biofilm. For fungal biofilm assays, all solutions were prepared in RPMI 1640 medium. All bacterial biofilm solutions were prepared in Tryptic Soy Broth (TSB), supplemented with 1% glucose (henceforth referred to as TSB-G). All subsequent procedures were performed in a manner that maintained sterility. […] Amino acids were also tested in combinations. Compound solutions were homogenized with gentle agitation in the dark (4° C., 24 hours) before use. Fungal strains were streaked on Yeast Peptone Dextrose (YPD) agar plates and incubated at 30° C. for 48 hours. A single colony from each strain to be tested was inoculated into YPD broth and grown for 12 hours, at 30° C., shaking at 225 rpm. For the fungal biofilm inhibition assay, 1 μl of saturated overnight cell culture was added to either 80 μL of RPMI-1640 or RPMI-1640 supplemented with the amino acid compound solution to be tested, in a 384-well plate. The cells were allowed to adhere to the plate for 90 minutes at 37° C. shaking at 350 rpm. Loosely bound cells were washed once with phosphate buffered saline (PBS) and 80 μl of RPMI-1640, or RPMI-1640 supplemented with the amino acid compound solution was added to the plate. The plate was further incubated for 24 hours at 37° C. shaking at 350 rpm. Media was carefully aspirated and the biofilm was measured by optical density at 600 nm. Twelve replicates were performed for each tested condition and the reported values are normalized to the control (RPMI-1640 media only). For the fungal biofilm disruption assays, 80 μL of RPMI-1640 was added to the plate, along with 1 μL of overnight cell culture. The cells were allowed to adhere to the plate for 90 minutes at 37° C. shaking at 350 rpm. Loosely bound cells were washed once with PBS and 80 μL of RPMI-1640 was added to the plate. The plate was further incubated for 24 hours at 37° C. shaking at 350 rpm. Media was carefully aspirated from the mature biofilm and 80 μL of RPMI-1640, or RPMI-1640 supplemented with the amino acid compound solution to be tested, was gently added to the plate. The plate was further incubated for 24 hours at 37° C. shaking at 350 rpm. Media was carefully aspirated and the biofilm was measured by optical density at 600 nm. Twelve replicates were performed for each tested condition and the reported values are normalized to the control (RPMI-1640 media only).

[5] = sustained inhibition, S. aureus, 1% amino acid, p<0.001
[6] = disruption, S. aureus, 1% amino acid, p<0.001, read-out: Reduce B Biofilm
[7] = disruption, S. aureus, 1% amino acid, p<0.001, read-out: Promote B Biofilm

N=C(N)NCCC[C@H](N)C(=O)O [Arginine, L-arginine]
effect on bacterial biofilm growth [1]: support (improve) bacterial biofilm growth
activation at 1 % [2]: 10 to 30%
activation at 1 % ([3]; read-out: Promote B Biofilm): 10 to 30%

C[C@@H](O)[C@H](N)C(=O)O [Threonine, L-threonine]
effect on bacterial biofilm growth [1]: support (improve) bacterial biofilm growth
activation at 1 % [2, 5]: 10 to 30%

NCCOP(=O)(O)O [Phosphoethanolamine, O-phosphoethanolamine]
effect on MRSA biofilms in inhibition and disruption assays [1]: both inhibited and disrupted
anti-biofilm properties against bacterial biofilms [1]: reduction by less than twofold
Reduce B Biofilm [2, 5]: ● (a single dot [i.e. ●] signifies minor effect (from about 10 to about 30% change))
inhibition at 1 % [3, 6]: 10 to 30%

NCCCC[C@H](N)C(=O)O [Lysine, L-lysine]
effect on bacterial biofilm growth [1]: support (improve) bacterial biofilm growth
activation at 1 % [2]: 10 to 30%
activation at 1 % ([3]; read-out: Promote B Biofilm): 10 to 30%

NCC(=O)O [Glycine, L-glycine]
effect on bacterial biofilm growth [1]: support (improve) bacterial biofilm growth
activation at 1 % [2, 5]: 10 to 30%
activation at 1 % [3, 7]: 10 to 30%

CC[C@H](C)[C@H](N)C(=O)O [Isoleucine, L-isoleucine]
effect on bacterial biofilm growth [1]: support (improve) bacterial biofilm growth
activation at 1 % [3, 7]: 10 to 30%

NCCS(=O)(=O)O [Taurine, L-taurine]
effect on bacterial biofilm growth [1]: support (improve) bacterial biofilm growth
activation at 1 % [2, 5]: 10 to 30%
activation at 1 % [3, 7]: 10 to 30%

NCCC[C@H](N)C(=O)O [Ornithine, L-omithine]
effect on bacterial biofilm growth [1]: support (improve) bacterial biofilm growth
activation at 1 % [2, 5]: 10 to 30%
activation at 1 % [3, 7]: 10 to 30%

NCCC(=O)O [Beta-Alanine, Beta-alanine]
anti-biofilm properties against bacterial biofilms [1]: reduction by less than twofold
Reduce B Biofilm [2, 5]: ● (a single dot [i.e. ●] signifies minor effect (from about 10 to about 30% change))

NC(=O)NCCC[C@H](N)C(=O)O [Citrulline, L-citrulline]
effect on bacterial biofilm growth [1]: support (improve) bacterial biofilm growth
activation at 1 % [2]: 10 to 30%
activation at 1 % ([3]; read-out: Promote B Biofilm): 10 to 30%

N[C@@H](CCSC[C@H](N)C(=O)O)C(=O)O [Cystathionine, L-cystathionine]
inhibition at 0.2 % ([3]; disruption, S. aureus, 0.2% amino acid, p<0.001, read-out: Reduce B Biofilm): 10 to 30%

N[C@@H](CO)C(=O)O [Serine, L-serine]
effect on bacterial biofilm growth [1]: support (improve) bacterial biofilm growth
activation at 1 % [2, 5]: 10 to 30%
activation at 1 % [3, 7]: 10 to 30%

C[C@H](N)C(=O)O [Alanine, L-alanine]
effect on bacterial biofilm growth [1]: support (improve) bacterial biofilm growth
activation at 1 % [3, 7]: 10 to 30%

CC(C)C[C@H](N)C(=O)O [Leucine, L-leucine]
effect on bacterial biofilm growth [1]: support (improve) bacterial biofilm growth
activation at 1 % [2, 5]: 10 to 30%
activation at 1 % [3, 7]: 10 to 30%

NC(=O)C[C@H](N)C(=O)O [Asparagine, L-asparagine]
effect on bacterial biofilm growth [1]: support (improve) bacterial biofilm growth
activation at 1 % [2, 5]: 10 to 30%

N[C@@H](Cc1ccccc1)C(=O)O [Phenylalanine, L-phenylalanine]
effect on bacterial biofilm growth [1]: support (improve) bacterial biofilm growth
activation at 1 % [2, 5]: 10 to 30%
activation at 1 % [3, 7]: 10 to 30%

NC(CCCC(=O)O)C(=O)O (stereo not drawn) [2 Aminoadipic Acid, 2-aminoadipic acid]
effect on MRSA biofilms in inhibition and disruption assays [1]: both inhibited and disrupted
anti-biofilm properties against bacterial biofilms [1]: reduction by less than twofold
Reduce B Biofilm [2, 5]: ● (a single dot [i.e. ●] signifies minor effect (from about 10 to about 30% change))
inhibition at 1 % [3, 6]: 10 to 30%

CSCC[C@H](N)C(=O)O [Methionine, L-methionine]
effect on bacterial biofilm growth [1]: support (improve) bacterial biofilm growth
activation at 1 % [2, 5]: 10 to 30%

N[C@@H](CCS)C(=O)O [Homocysteine, L-homocysteine]
effect on C. albicans biofilms in inhibition and disruption assays ([4]; Tables 4 and 5): both inhibited and disrupted
anti-biofilm properties against fungal biofilms ([4]; administered individually, in at least one of the two biofilm assays): reduction by less than two-fold

O=C(O)[C@@H]1C[C@@H](O)CN1 [Hydroxyproline, Trans-4-hydroxy-L-proline]
effect on MRSA biofilms in inhibition and disruption assays [1]: both inhibited and disrupted
anti-biofilm properties against bacterial biofilms [1]: reduction by less than twofold
Reduce B Biofilm [2, 5]: ● (a single dot [i.e. ●] signifies minor effect (from about 10 to about 30% change))
inhibition at 1 % ([3]; read-out: Reduce B Biofilm): 10 to 30%
